# Reference: patent US20040171592A1, “Organic nitrate-based compounds for the treatment of vasculopathies” (priority 2001, published 2004)
# Marks after values point to notes of the source that are not given here.
# Assays:
# gastric mucosa = experiment: Damages to the gastric mucosa (lesion score) in the rats of the restenosis model; assay type: in vivo, Male Wistar rats; details: for Gastric damage Score: control score 2
# Description: (§1) The rats were divided in the indicated groups (n. 12 animals each) and subjected to pharmacological treatment as described hereunder for the 14 days following the vascular damage. The compounds, dissolved in polyethylenglycol (PEG 400) were administered by os by gastric probe according to the following scheme:
# (§2) The animals were sacrificed and the carotids removed. For each artery n. 6 sections having a thickness of 6 μm were isolated. Stomachs were removed and inspected for damages of the gastric mucosa, determining the areas of both bleeding lesions and non bleeding lesions. Said lesions were evaluated by a score according to known methods.
# [1] = test system: restenosis experimentally caused by balloon angioplasty; experiment: Restenosis induced in rats by balloon angioplasty (neointima/middle tunica thickness ratio); assay type: in vivo, Male Wistar rats; details: for Restenosis %: 14 days after vascular damage, control = 100; for formation of the neointima tunica in the vascular wall / restenosis (in words): summary of Table 1, NO-aspirin low doses, Aspirin high doses
# Description: Efficacy of Aspirin and of 2-acetyloxybenzoic acid (3-nitrooxymethyl)phenyl ester (Formula XI), in an Experimental Model of Restenosis Induced in Rats
# Male Wistar rats weighing 300-350 g were anaesthetized by intraperitoneal injection of ketamine (100 mg/kg) and xylazine (5 mg/kg) and subjected to angioplasty according to the procedure described by Indolfi et Al., Circulation, 1995, 92, 1230-1235, by using a little balloon catheter which was first introduced in the aortic arch through the right carotid, then swollen and then let pass three times forth and back in the duct lumen.
# as §1
# 2 groups received NO-Aspirin at the dose of 30 and 100 mg/kg, respectively,
# 2 groups received Aspirin at the dose of 16 and 54 mg/kg, respectively,
# 1 group received NO-Ketorolac at the dose of 10 mg/Kg,
# 1 group received Ketorolac at the dose of 5 mg/Kg,
# the control group received only the carrier (PEG 400, 0.2 ml/rat).
# At the end of the treatment the animals were anaesthetized as described above and the carotids were first washed by infusion, through the left ventricle, of saline buffer phosphate (PBS, pH 7,2, 100 ml) then fixed with PBS containing paraformaldehyde (4%).
# as §2
# 3 of the 6 sections of each artery were stained with hematoxylin and eosin to evidence different types of cells, the remaining 3 sections were stained first with aldehyde fuchsin and then with the Gieson solution to evidence the internal elastic lamina (IEL). The sections were photographed and the imagines were analyzed by an image analysis system (Qwin Lite, Leica, Milan).
# The thicknesses respectively of the middle and neointima tunica, and of the duct wall were measured. The results reported in Table 1 are expressed as percentage of restenosis and have been calculated as a ratio between the thickness of the neointima tunica and that of the middle tunica […] measured in the sections obtained from the groups, assuming equal to 100 the N/M ratio of the control group.
# [2] = test system: oxidized LDL in the vascular wall; experiment: Vascular damage in carotids: oxidized LDL in the vascular wall (MDA2 antibody immunohistochemistry); assay type: in vivo, SP-SHR rats; details: control = 0
# Description: Evaluation of the Vascular Damage in Animals Treated With NO-ASA and Aspirin
# In this experiment SP-SHR rats were used, as in the previous Example.
# Three groups, each formed by 12 SP-SHR rats, 8 weeks old at the beginning of the experiment, received respectively for 6 weeks, together with the daily diet Aspirin (54 mg/kg) NO-ASA (30 mg/kg) (two groups); the control group (third group) received only the diet.
# At the end of the treatment the animals were sacrificed by decapitation and the carotids were isolated. The ducts were opened and washed with cold sterile buffer phosphate (PBS) containing EDTA (2 mM) and maintained in cold PBS (cooled in ice bath) containing 2, [6]-di-tert-butyl-p-cresol (50 μM), aprotin (0.001%), EDTA (50 mM) and chloramphenicol (0.008%). The arteries were fixed with formalin (10%), then soaked in paraffin and then dissected. An aliquot of the obtained sections was incubated with MDA2 antibodies, which are directed against specific epitopes for oxidized LDL.
# The data were calculated by considering the number of the sections, positive at the immunohistochemical test with MDA2 antibodies, detected in the groups of the treated animals and in the control group, respectively. The results are expressed as percentage of reduction of the oxidized LDL (low density lipoprotein) presence in the vascular wall taking as 0 the LDL value measured in the control group.
# [3] = test system: SP-SHR rats (Stroke-Prone Spontaneously Hypertension Rats); experiment: Mortality/survival in SP-SHR rats under chronic treatment for 16 weeks; assay type: in vivo; details: controls 0
# Text: Evaluation of the Mortality in SP-SHR Rats (Stroke-Prone Spontaneously Hypertension Rats) Treated With 2-acetyloxybenzoic acid (6-nitrooxymethyl)-2-methylpyridinyl hydrochloride ester (Formula XV), (NO-ASA) and Aspirin.
# In this experiment SP-SHR rats were used which develop a severe hypertension, with a high incidence of spontaneous cerebral infarct. […] (Yamori Y. et al. Stroke 1976; 7: 46-53).
# Three groups each formed by 12 SP-SHR rats, 8 weeks old at the beginning of the experiment, received for 16 weeks together with the daily diet Aspirin (54 mg/kg) NO-ASA (30 mg/kg); the control group received only the diet.
# During the period of chronic treatment the percentage of animal survival was evaluated.
# [4] = 54 mg/kg/die with the daily diet
# [5] = 30 mg/kg/die with the daily diet
compound,measurement,setting,value
"O=C(c1ccccc1)c1ccc2n1CCC2C(=O)OCCCCO[N+](=O)[O-] (centres unmarked) [NO Ketorolac, 5-benzoyl-2,3-dihydro-1H-pyrrolizin-1-carboxylic acid (4-nitrooxy)butyl ester]",Gastric damage Score,gastric mucosa; Dose 10 mg/Kg,20
same,gastric toxicity / lesions to the gastric mucosa (in words),"gastric mucosa; summary of Table 1, Aspirin high doses",shows a gastric toxicity
same,Restenosis %,[1]; 10 mg/Kg by os,90%
same,formation of the neointima tunica in the vascular wall / restenosis (in words),[1],not very effective
"CC(=O)Oc1ccccc1C(=O)O [Aspirin, aspirin]",Gastric damage Score,gastric mucosa; Dose 50 mg/Kg,22*
same,Gastric damage Score,gastric mucosa; Dose 100 mg/Kg,42*
same,gastric toxicity / lesions to the gastric mucosa (in words),"gastric mucosa; rat, in vivo",produce lesions to the gastric mucosa
same,Restenosis %,[1]; 16 mg/Kg by os,100%
same,Restenosis %,[1]; 54 mg/Kg by os,55* %
same,formation of the neointima tunica in the vascular wall / restenosis (in words),[1],small reduction of the restenosis
same,reduction % of the presence of oxidized LDL,[2]; 54 mg/kg with the daily diet for 6 weeks,19%
same,"% of survival, XVIth week",[3]; [4],50%
same,"% of survival, Xth week",[3]; [4],100%
"CC(=O)Oc1ccccc1C(=O)OCc1cccc(CO[N+](=O)[O-])n1.Cl [NO-ASA, 2-(acetyloxy)benzoic acid, 6-(nitrooxymethyl)-2-methyl pyridinyl hydrochloride ester]",reduction % of the presence of oxidized LDL,[2]; 30 mg/kg with the daily diet for 6 weeks,74%
same,"% of survival, XVIth week",[3]; [5],100%
same,"% of survival, Xth week",[3]; [5],100%
"CC(=O)Oc1ccccc1C(=O)Oc1cccc(CO[N+](=O)[O-])c1 [NO-Aspirin, 2-(acetyloxy)benzoic acid 3-(nitrooxymethyl)phenyl ester]",Gastric damage Score,gastric mucosa; Dose 166 mg/Kg,2
same,Gastric damage Score,gastric mucosa; Dose 249 mg/Kg,4
same,Restenosis %,[1]; 30 mg/Kg by os,62.5* %
same,Restenosis %,[1]; 100 mg/Kg by os,31* %
same,formation of the neointima tunica in the vascular wall / restenosis (in words),[1],already significantly reduced
"O=C(c1ccccc1)c1ccc2n1CCC2C(=O)O (centres unmarked) [Ketorolac, ketorolac]",Gastric damage Score,gastric mucosa; Dose 5 mg/Kg,50
same,Restenosis %,[1]; 5 mg/Kg by os,100%
